For 100 compounds, cytotoxicity results are on record in ChEMBL document CHEMBL3507680, “University of Dundee, Gates Library screen for HepG2 cell viability”.

This data set can be described thus: Human HepG2 cell viability assay in 384 well format. In kind it is toxicity, cell-based. Also noted: dose 125 nL, time 70.5 hour; concentration not given beside the values. The following applies: HepG2 cells, read-out: Inhibition.
Turning to `CC(C)(C)n1ncc2c(=O)n(CC(=O)NCc3ccccc3Cl)cnc21`, the cytotoxicity at 70.5 h is -0.0412%. For the compound `CC(C)(C)n1ncc2c(=O)n(CC(=O)NCc3ccccc3)cnc21`, the cytotoxicity at 70.5 h was 7.32%. Take `Cc1c(C)n2c(SCC(=O)N3CCOCC3)nnc2[nH]c1=O`: the cytotoxicity at 70.5 h is -3.31%. Regarding `CCc1c(C)nc(SCc2ccccn2)[nH]c1=O`, the cytotoxicity at 70.5 h was -5.97%.

As to `CCOC(=O)c1sc(NC(=O)C(C)C)c(C#N)c1C`, the cytotoxicity at 70.5 h was -5.23%. Regarding `Cc1c(C)n2c(SCC(=O)N3CCCCC3)nnc2[nH]c1=O`, the cytotoxicity at 70.5 h is -8.89%.

With `CCn1/c(=N/C(=O)CSCC(=O)Nc2nccs2)sc2ccccc21`, the cytotoxicity at 70.5 h was -0.443%. In the case of `Nc1nc2c(c(NC(=O)Nc3cccc(Cl)c3)n1)CCCC2` it was 13.3%. As for `COCCn1/c(=N\C(=O)CN(C)S(C)(=O)=O)sc2cc(C)ccc21`, the cytotoxicity at 70.5 h is 14.4%. As to `COCCSc1ccc(-n2cccn2)nn1`, the cytotoxicity at 70.5 h turned out to be 12.3%.

Consider `COCCSc1ccc(-n2ccnc2)nn1`, for which the cytotoxicity at 70.5 h amounted to 26.4%. With `Cc1ccccc1OCC(=O)NCC(c1ccc(N(C)C)cc1)N(C)C` (stereo not given), the cytotoxicity at 70.5 h was found to be 29.2%.

For the compound `Cc1cc(=O)[nH]c(-n2nc(-c3cccs3)cc2N)n1`, the cytotoxicity at 70.5 h is 13.9%. As to `O=c1n(Cc2cccc(C(F)(F)F)c2)nc2ncccn12`, the cytotoxicity at 70.5 h is 24.8%. As to `CCN(CC)C(=O)CSc1nc2c(cnn2CCO)c(=O)[nH]1`, the cytotoxicity at 70.5 h was found to be 17.2%. In the case of `O=C(Cc1ccc(Cl)s1)Nc1ccc2c(c1)C(=O)NC2=O` it was -1.77%. Regarding `NC(=O)Cn1c(CO)cnc1SCC(=O)NCc1ccccc1`, the cytotoxicity at 70.5 h stood at 13.6%. Take `CN1C(=O)CCc2cc(NC(=O)C3CCCC3)ccc21`: the cytotoxicity at 70.5 h was determined as 26.5%. For the compound `O=S(=O)(NCC(c1ccsc1)N1CCCCCC1)c1cccs1` (stereo not given), the cytotoxicity at 70.5 h is -3.34%. Then `CCOc1ccc(C(=O)Nc2c(C)nc3scc(C)n3c2=O)cc1`, with -0.312%; and `CC(=O)Nc1ccc2c(c1)CN(C(=O)c1ccco1)CC2`, with 18.4%. `CCOc1cc(N2CCN(C(=O)c3ccc(OC)cc3)CC2)nc(C)n1`: the cytotoxicity at 70.5 h was 5.38%.

In the case of `O=C(Nc1ncnc2c1CCC2)c1cccc(F)c1`, the cytotoxicity at 70.5 h was 11.5%.

With `COc1cc(OC)cc(C(=O)Nc2ncnc3c2CCC3)c1`, the cytotoxicity at 70.5 h came out at 59%. As to `Cc1cc(C(=O)N2CCN(c3nc4ccccc4s3)CC2)no1`, the cytotoxicity at 70.5 h was determined as 48.3%. On to `COc1cccc2sc(N3CCN(C(=O)c4cc(C)on4)CC3)nc12`, for which the cytotoxicity at 70.5 h is -2.51%. As for `Cc1cnc2c(c1NCc1ccc(F)cc1)c(=O)n(C)c(=O)n2C`, the cytotoxicity at 70.5 h was determined as 12.7%. Regarding `Cc1cnc2c(c1NCc1cccs1)c(=O)n(C)c(=O)n2C`, the cytotoxicity at 70.5 h is -16.9%.

In the case of `CC(C)NC(=O)Cn1cc(OCc2ccc(F)cc2)c(=O)cc1CO`, the cytotoxicity at 70.5 h is -4.49%. Then `COCCNC(=O)Cn1cc(OCc2ccc(F)cc2)c(=O)cc1CO`, with -9.69%; and `O=C(CC1CSc2nccc(=O)n21)NCc1ccco1` (stereo not given), with -1.36%; and `Cc1cnc2n(c1=O)C(CC(=O)NCc1ccccc1Cl)CS2` (stereo not given), with 35%. Regarding `Cc1cnc2n(c1=O)C(CC(=O)NCc1cccnc1)CS2` (stereo not given), the cytotoxicity at 70.5 h is -0.178%.

Regarding `CCCc1cc(=O)[nH]c2nnc(SCC(N)=O)n12`, the cytotoxicity at 70.5 h is 23.3%. As to `CCCc1cc(=O)[nH]c2nnc(SCC(C)=O)n12`, the cytotoxicity at 70.5 h is -6.78%. On to `Cc1cccc(-n2ncc3c(=O)n(CCN4CCCCC4)cnc32)c1C`, for which the cytotoxicity at 70.5 h turned out to be 28%. As to `CCOC(=O)c1sc(NC(=O)CN2C(=O)CCC2=O)c(C#N)c1C`, the cytotoxicity at 70.5 h worked out at 31.1%. Regarding `CCS(=O)(=O)c1cccc(C(=O)Nc2cccc3c2C(=O)N(C)C3=O)c1`, the cytotoxicity at 70.5 h came out at 31%.

Consider `CCCc1cc(=O)n(CC(=O)NCCOC)c(-n2nc(C)cc2C)n1`, for which the cytotoxicity at 70.5 h was -0.382%. With `O=C(CSC1=NS(=O)(=O)c2cc(F)ccc2N1)Nc1ccc(Cl)cc1`, the cytotoxicity at 70.5 h was found to be 22.3%. On to `CCNC(=O)NCc1nn(CCN2CCCC2)c(=O)c2ccccc12`, for which the cytotoxicity at 70.5 h is -5.36%. Take `CN(C)S(=O)(=O)NCc1nn(CCN2CCCC2)c(=O)c2ccccc12`: the cytotoxicity at 70.5 h was -12.7%. As to `Cc1ccccc1CSc1nc(=O)n(CCO)c2c1CCC2`, the cytotoxicity at 70.5 h was -9.33%. With `CCCN1CCc2nc(SCc3ccccc3)[nH]c(=O)c2C1`, the cytotoxicity at 70.5 h was determined as 8.44%. In the case of `CC(C)n1ncc2cc(NC(=O)N3CCC(CO)CC3)cnc21` it was 3.41%; in that of `CC(=O)N1CCC(NC(=O)N2CCN(c3cnccn3)CC2)CC1`, 1.14%; in that of `CCc1nc(C2CCCN(C(=O)c3ccccc3Cl)C2)no1` (stereo not given), -1.75%. In the case of `COc1c(C2CCCN2CC(=O)Nc2cccnc2)c(C)nn1C` (stereo not given) it was -6.38%; in that of `Cc1nc(C2CCCN2CC(=O)N(C)Cc2ccsc2)no1` (stereo not given), 12.6%. Turning to `Cc1nc(C2CCCN2CC(=O)NCCc2ccc(Cl)cc2)no1` (stereo not given), the cytotoxicity at 70.5 h was -2.31%.

For the compound `Cc1nc(CN(C)C2CCN(CC3CCCC3)C2)no1` (stereo not given), the cytotoxicity at 70.5 h is -1.44%.

In the case of `CC(=O)c1cccc(NC(=O)CCn2nc(-c3cccs3)oc2=O)c1`, the cytotoxicity at 70.5 h was -18.2%. In the case of `CC(=O)c1cccc(NC(=O)Cn2nc(-c3cccs3)oc2=O)c1`, the cytotoxicity at 70.5 h came to 10.5%.

In the case of `O=C(C1CCN(Cc2nc(-c3ccco3)no2)CC1)N1CCCC1`, the cytotoxicity at 70.5 h was -4.18%. In the case of `COc1ncccc1C(=O)NC1CCOc2ccccc21` (stereo not given), the cytotoxicity at 70.5 h was -6.62%. In the case of `CCOc1cc(C(=O)NS(=O)(=O)c2cccc(C#N)c2)ccc1OC` it was -10%; in that of `CC(C(=O)N1CCOCC1)N1CCN(Cc2nccn2C)CC1` (stereo not given), -2.07%. As to `Cc1nccn1C1CCCN(C(=O)c2ccc3c(c2)nc(C)n3C)C1` (stereo not given), the cytotoxicity at 70.5 h was -3.08%. On to `NC(=O)c1ccc(C(=O)N2CCCCC2Cn2cccn2)s1` (stereo not given), for which the cytotoxicity at 70.5 h was 19.1%. With `CCc1nc(C2CCCN2C(=O)CCc2nc(C3CC3)no2)no1` (stereo not given), the cytotoxicity at 70.5 h is -1.64%. As for `CC(=O)N(Cc1noc(C2CC2)n1)C1CCN(CC(=O)NC2CC2)C1` (stereo not given), the cytotoxicity at 70.5 h is -7.63%.

As for `CC(=O)N(Cc1noc(C2CC2)n1)C1CCN(Cc2cc(C)on2)C1` (stereo not given), the cytotoxicity at 70.5 h was -3.51%. With `O=C(c1cc2c(s1)CCCC2)N1CCCC1Cn1cccn1` (stereo not given), the cytotoxicity at 70.5 h is -4.37%. Consider `COCCCN1CCC(N(Cc2noc(C)n2)C(C)=O)C1` (stereo not given), for which the cytotoxicity at 70.5 h is -5.67%. `c1cnn(CC2CN(Cc3nnc(C4CC4)o3)CCO2)c1` (stereo not given): the cytotoxicity at 70.5 h was -4.26%. In the case of `CCc1nc(C2CCCN2C(=O)CCc2nc(C(C)(C)C)no2)no1` (stereo not given) it was 15.3%; in that of `Cc1nnc2n1CCN(Cc1csc(-c3ncccn3)n1)C2`, 39.4%; in that of `CCc1nnc2n1CCN(Cc1csc(Cc3ccccc3)n1)C2`, 15.5%. Consider `CCOc1ccc(CN2CCN(C(=O)c3cc(C4CC4)[nH]n3)CC2)cc1`, for which the cytotoxicity at 70.5 h was -2.02%. `CC(C)c1ccc(CN2CCN(C(=O)c3cc(C4CC4)[nH]n3)CC2)cc1`: the cytotoxicity at 70.5 h came to 44.7%. Regarding `CC(C)c1noc(CN2CCN(C(=O)c3cccnc3O)CC2)n1`, the cytotoxicity at 70.5 h is -3.73%.

For `O=C(CN1CCN(c2nccs2)CC1)Nc1cccnc1`, the cytotoxicity at 70.5 h is -7.83%. As to `NC(=O)C1CN(C(=O)Nc2ccc(SC(F)(F)F)cc2)CCO1` (stereo not given), the cytotoxicity at 70.5 h was -10.3%. Turning to `Cc1ccccc1NC1CCN(C(=O)CCc2ccco2)CC1`, the cytotoxicity at 70.5 h is 1.41%. Regarding `NC(=O)C1CN(C(=O)Nc2ccccc2OCC(F)(F)F)CCO1` (stereo not given), the cytotoxicity at 70.5 h is -4.53%.

`c1ccc2oc(N3CCCC3Cn3cncn3)nc2c1` (stereo not given): the cytotoxicity at 70.5 h is -3.56%. Take `Cc1nc(C)n(CC2CCCN2CCCc2nc3ccccc3o2)n1` (stereo not given): the cytotoxicity at 70.5 h was -5.85%.

For the compound `NC(=O)COc1ccc(C(=O)N2CCCC(n3ccnc3)C2)cc1` (stereo not given), the cytotoxicity at 70.5 h was -3%.

Consider `Cc1ccc(NC2CCN(C(=O)CCc3c(C)noc3C)CC2)nn1`, for which the cytotoxicity at 70.5 h was -11.1%.

As to `Cn1cc(C2CCCN2C(=O)c2cn(-c3ccccc3)nn2)cn1` (stereo not given), the cytotoxicity at 70.5 h was -0.276%. Then `Cc1ccc(-n2ncc(C(=O)N3CCCC3c3cnn(C)c3)c2C)cc1` (stereo not given), with 11.4%. Turning to `NC(=O)c1cccc(C(=O)N2CCCC(n3ccnc3)C2)c1` (stereo not given), the cytotoxicity at 70.5 h is -3.58%. For the compound `NC(=O)C1CN(C(=O)Nc2ccccc2Oc2ccccc2Cl)CCO1` (stereo not given), the cytotoxicity at 70.5 h is -6.93%. Regarding `Cc1cc(NC(=O)CN2CCN(c3nccs3)C(C)C2)on1` (stereo not given), the cytotoxicity at 70.5 h is -6.15%. With `Cc1cc(NC(=O)CN2CCN(c3nccs3)C(C)C2)no1` (stereo not given), the cytotoxicity at 70.5 h was -8.11%. In the case of `Cc1n[nH]c(C)c1NC(=O)CN1CCN(c2nccs2)C(C)C1` (stereo not given) it was -1.01%. In the case of `CC(C)c1noc(CN2CCN(C(=O)c3cccc(F)c3)CC2)n1`, the cytotoxicity at 70.5 h was -8.17%. On to `COc1cccc(C(=O)N2CCN(Cc3nc(C(C)C)no3)CC2)c1`, for which the cytotoxicity at 70.5 h was -5.91%. With `COc1c(C2CCCN2Cc2nc(-c3ccco3)no2)c(C)nn1C` (stereo not given), the cytotoxicity at 70.5 h is -2.62%. In the case of `CN1CCOC(CN(C(=O)CN2CCCC2=O)c2nccs2)C1` (stereo not given) it was 9.36%; in that of `Cc1ccc(NC2CCN(C(=O)CCc3nccs3)CC2)nn1`, -12.3%; in that of `c1ccc2oc(CN3CCCCC3Cn3cncn3)nc2c1` (stereo not given), -4.46%. Turning to `NC(=O)c1cccc(OCC(=O)N2CCCC(n3ccnc3)C2)c1` (stereo not given), the cytotoxicity at 70.5 h is -11.1%. Take `CN(Cc1nnc(C2CC2)n1C)C1CCN(Cc2nccn2C)C1` (stereo not given): the cytotoxicity at 70.5 h was found to be 2.78%. With `COc1cccc2cc(CNCc3ccnc(N4CCCCC4)c3)oc12`, the cytotoxicity at 70.5 h was found to be 3.87%. Consider `CCn1c(C)nnc1CN(C)C1CCN(Cc2nnc(C3CC3)o2)C1` (stereo not given), for which the cytotoxicity at 70.5 h stood at 2.54%. For `CCc1nnc(CN2CCCC2Cn2cc(C)cn2)o1` (stereo not given), the cytotoxicity at 70.5 h was found to be 17.8%. Then `Cn1cnc(S(=O)(=O)NCCCN2CCCC2)c1Cl`, with -4.58%. On to `O=C(Nc1nc2c(s1)CNCC2)NC1CCCC1`, for which the cytotoxicity at 70.5 h was 18.7%. On to `CCCC(=O)N(CCCN1CCOCC1)c1nc2c(C)ccc(Cl)c2s1`, for which the cytotoxicity at 70.5 h is -3.12%.
